Experimental data from ChEMBL document CHEMBL1201862, “PubChem BioAssay data set” (2004).
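Five concentrations, 48 hours, 96-well plates. GI50 is the concentration that inhibits growth by half.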 Activity calls are given as the source filed them. Rule as the data show it: active = GI50 up to about 1.1 µM and inactive = higher.

What was measured:
Experiment in all cases: inhibition of tumour cell growth, NCI panel, 48 h
[1] = system: SW-620
[2] = system: IGROV-1
[3] = system: OVCAR-3
[4] = system: EKVX
[5] = system: M14
[6] = system: RXF 393
[7] = system: SK-MEL-5
[8] = system: HCT-116
[9] = system: SF-539
[10] = system: UO-31
[11] = system: K562
[12] = system: NCI-H522
[13] = system: LOX IMVI
[14] = system: SK-MEL-2
[15] = system: SN12C
[16] = system: CAKI-1
[17] = system: SNB-19
[18] = system: DU-145

Measured: GI50

C/C(CC(=O)Nc1ccc([N+](=O)[O-])cc1)=N/N=C(N)N
inactive: [1] > 100 µM | [2] > 100 µM | [3] > 100 µM | [4] > 100 µM | [5] > 100 µM | [6] > 100 µM | [7] > 100 µM | [8] > 100 µM | [9] > 100 µM | [10] > 100 µM | [11] > 100 µM | [12] > 100 µM | [13] > 100 µM | [14] > 100 µM

CC(C)(CN1C(=O)C(Cl)=C(Cl)C1=O)CN1C(=O)C(Cl)=C(Cl)C1=O
inactive: [15] 11.7 µM | [1] 5 µM | [2] 18.9 µM | [3] 8.02 µM | [4] 19.9 µM | [5] 16.6 µM | [16] 8.15 µM | [6] 6 µM | [7] 22.1 µM | [8] 11.5 µM | [9] 20.1 µM | [10] 31.6 µM | [11] 1.64 µM | [17] 23 µM | [12] 1.62 µM | [13] 12.2 µM | [14] 18.8 µM

CCN1C(=O)C(N=[N+]=[N-])(c2ccccc2)C(=O)c2ccccc21 (stereo not drawn)
inactive: [15] > 100 µM | [1] > 100 µM | [2] > 100 µM | [3] 56.8 µM | [4] 32.9 µM | [5] 41.9 µM | [16] > 100 µM | [6] 99.1 µM | [7] 56.5 µM | [8] 61.8 µM | [9] > 100 µM | [10] 43.7 µM | [11] 39 µM | [17] > 100 µM | [12] > 100 µM | [13] > 100 µM | [14] > 100 µM

O=[N+]([O-])c1ccc(C(O)/C(=N/O)c2nc3ccc(Cl)cc3nc2O)cc1 (stereo not drawn)
inactive: [15] > 100 µM | [1] > 100 µM | [2] > 100 µM | [4] > 100 µM | [5] > 100 µM | [16] > 100 µM | [6] > 100 µM | [7] > 100 µM | [8] > 100 µM | [9] > 100 µM | [10] > 100 µM | [11] > 100 µM | [17] > 100 µM | [13] > 100 µM | [14] > 100 µM

Cc1cc(Br)cc(C)c1NC(=O)C(=O)C(C(=O)c1ccc2ccccc2c1)C1OC(=O)c2ccccc21 (stereo not drawn)
inactive: [15] 19.7 µM | [1] 8.02 µM | [2] 18.2 µM | [3] 19.5 µM | [4] 19.5 µM | [5] 15.6 µM | [16] 15.7 µM | [6] 5.93 µM | [7] 11.2 µM | [8] 8.91 µM | [9] 2.69 µM | [10] 15.8 µM | [11] 5.93 µM | [17] 8 µM | [12] 8.65 µM | [13] 12.1 µM | [14] 16 µM

COc1ccc2c3c([nH]c2c1CC=C(C)C)C(=O)C=C(C)C3=O
inactive: [15] > 25 µM | [1] > 25 µM | [2] > 25 µM | [3] > 25 µM | [4] > 25 µM | [5] > 25 µM | [16] > 25 µM | [6] > 25 µM | [7] > 25 µM | [8] 16.2 µM | [9] > 25 µM | [10] > 25 µM | [11] > 25 µM | [17] > 25 µM | [12] 11.8 µM | [14] > 25 µM

CCOP(=O)(C/C(=N/NC(C)(C)C)C(=O)Nc1nc2ccc(C)cc2s1)OCC
inactive: [15] > 100 µM | [1] > 100 µM | [2] > 100 µM | [3] > 100 µM | [4] > 100 µM | [5] > 100 µM | [16] > 100 µM | [6] > 100 µM | [7] > 100 µM | [8] > 100 µM | [9] > 100 µM | [10] > 100 µM | [11] > 100 µM | [17] > 100 µM | [12] > 100 µM | [13] > 100 µM | [14] > 100 µM

COc1ccc(CN2C(=O)C(Cc3cc(OC)c(OC)c(C)c3OC)N(C(=O)OC(C)C)C(=O)/C2=C/c2cc(OC)c(OC)c(C)c2OC)cc1 (stereo not drawn)
inactive: [15] > 100 µM | [1] > 100 µM | [2] > 100 µM | [3] 16.1 µM | [4] 50.8 µM | [5] > 100 µM | [16] > 100 µM | [6] 6.9 µM | [7] 46.8 µM | [8] 66.2 µM | [9] > 100 µM | [10] 16.6 µM | [11] 41 µM | [17] > 100 µM | [12] 4.4 µM | [13] > 100 µM | [14] 49.1 µM

CCOC(=O)CCCO
inactive: [15] > 100 µM | [1] > 100 µM | [2] > 100 µM | [3] > 100 µM | [4] > 100 µM | [5] > 100 µM | [6] > 100 µM | [7] > 100 µM | [8] > 10 µM | [9] > 100 µM | [10] > 100 µM | [11] > 100 µM | [17] > 100 µM | [12] > 100 µM | [13] > 100 µM | [14] > 100 µM

O=c1c(Cl)c(Cl)cnn1CCCl
active: [12] 0.558 µM
inactive: [15] 12.9 µM | [1] 1.9 µM | [18] 18.7 µM | [2] 1.95 µM | [3] 3.47 µM | [4] 6.73 µM | [5] 2.67 µM | [16] 2.27 µM | [6] 2.09 µM | [7] 3.4 µM | [8] 5.48 µM | [9] 14.1 µM | [10] 5.75 µM | [11] 2.06 µM | [17] 7.03 µM | [13] 2.86 µM

O=C(Nc1cccc2c1C(=O)c1c(NC(=O)c3ccccc3)ccc(Nc3cccc4c3C(=O)c3ccccc3C4=O)c1C2=O)c1ccccc1
inactive: [15] > 100 µM | [1] > 100 µM | [2] > 100 µM | [3] > 100 µM | [4] > 100 µM | [5] > 100 µM | [16] > 100 µM | [6] 59.4 µM | [7] > 100 µM | [8] > 100 µM | [9] > 100 µM | [10] > 100 µM | [11] > 100 µM | [17] > 100 µM | [12] > 100 µM | [14] > 100 µM

O=C(c1nc2ccccc2nc1O)C(O)c1ccco1 (stereo not drawn)
inactive: [15] > 100 µM | [1] > 100 µM | [2] > 100 µM | [3] > 100 µM | [4] > 100 µM | [5] > 100 µM | [6] > 100 µM | [7] 64.1 µM | [8] > 100 µM | [9] > 100 µM | [10] 72.3 µM | [11] > 100 µM | [17] > 100 µM | [12] 25.9 µM | [13] > 100 µM | [14] > 100 µM

CC(=O)/C(=N\O)C(=O)NCCc1ccccc1
inactive: [15] > 100 µM | [1] 38.8 µM | [2] > 100 µM | [3] > 100 µM | [4] > 100 µM | [5] > 100 µM | [16] > 100 µM | [6] 64.7 µM | [7] > 100 µM | [8] 46 µM | [9] > 100 µM | [10] > 100 µM | [11] 68.7 µM | [17] > 100 µM | [12] > 100 µM | [13] 41.8 µM | [14] > 100 µM

COc1cc([C@@H]2c3cc4c(cc3[C@@H](OC(=O)c3ccc(N)cc3)C3COC(=O)[C@@H]32)OCO4)cc(OC)c1O (stereo partly drawn)
inactive: [15] 4.21 µM | [1] 5.71 µM | [2] 2.8 µM | [3] 12.9 µM | [4] 20.2 µM | [5] 16.8 µM | [16] 8.47 µM | [6] 2.92 µM | [7] 3.59 µM | [8] 4.45 µM | [9] 2.54 µM | [10] 10.2 µM | [11] 5.18 µM | [17] 20.7 µM | [12] 2.07 µM | [13] 10.6 µM | [14] 6.32 µM

Cc1cc(C(C)C)cc(=O)c(O)c1
inactive: [15] > 100 µM | [1] > 100 µM | [2] > 100 µM | [3] > 100 µM | [4] > 100 µM | [5] > 100 µM | [16] > 100 µM | [6] > 100 µM | [7] > 100 µM | [8] > 100 µM | [9] > 100 µM | [10] > 100 µM | [17] > 100 µM | [12] > 100 µM | [13] > 100 µM

Cc1ccc(SSCCCS(=O)O)cc1
active: [11] 0.766 µM
inactive: [15] 21.6 µM | [1] 34.2 µM | [2] 7.93 µM | [3] 47 µM | [4] 33.1 µM | [5] 38.6 µM | [16] 38.7 µM | [6] 18.8 µM | [7] 30.1 µM | [8] 30.1 µM | [9] 20.7 µM | [10] 23.5 µM | [17] 49.7 µM | [12] 18.1 µM | [13] 11.4 µM | [14] 37.1 µM

O=C(NO)C(=O)Nc1cc(Cl)ccc1Cl
inactive: [15] > 100 µM | [1] > 100 µM | [2] 20.1 µM | [3] 90.6 µM | [4] > 100 µM | [5] > 100 µM | [16] 23.2 µM | [6] > 100 µM | [7] > 100 µM | [8] > 100 µM | [9] > 100 µM | [10] 22 µM | [11] 63.8 µM | [17] > 100 µM | [12] 23.9 µM | [13] 16.8 µM | [14] > 100 µM
